Two compounds from patent US20160143913A1, “COMBINATION” (Novartis AG, priority 2009, published 2016) can be followed below.

Structures are written as SMILES. Where two headings read alike, the source gives them in different places.

The subject of one test is human lung tumor lines. Description: Cell growth inhibition assay, lung tumor lines. The following applies: COR-L23, A549, NCI-H1355, NCI-H1792, NCI-H23, Calu 6 and MV522, range over the lines, read-out: IC50s, single agent. Type of test: cell-based. The text has this: (§1) Human breast tumor line, MDA-MB-175-VII, human colon tumor lines, Colo-205, DLD-1, HCT-8, HT-29, LS-1034, NCI-H508, RKO, SW1417, SW1463, SW480, SW837 and T84, and human lung tumor lines, A427, A549, Calu 3, Calu 6, HCC827, NCI-H1155, NCI-H1355, NCI-H1792, NCI-H23, NCI-H727, SW1573 and SW900 were from ATCC. Human breast tumor line EFM-19 was from German Collection of Microorganisms and Cell Cultures. Human lung tumor line COR-L23 was from European Collection of Cell Cultures (UK). Human colon tumor line KM12 and human lung tumor line Hop62 were from National Cancer Institute. MV522 was from University of California at San Diego. All lines were cultured in RPMI 1640 medium containing 10% fetal bovine serum (FBS).
(§2) All cells were cultured for a minimum of 72 hours prior to cell plating. […] ATP levels were determined by adding Cell Titer Glo® (Promega) according to the manufacturer's protocol. Briefly, Cell Titer Glo® was added each plate, incubated for 30 minutes then luminescent signal was read on the SpectraMax L plate reader with a 0.5 sec integration time.
(§3) Inhibition of cell growth was estimated after treatment with compound or combination of compounds for three days and comparing the signal to cells treated with vehicle (DMSO). Cell growth was calculated relative to vehicle (DMSO) treated control wells. […]

For the next test, the system named is KM12. Description: Cell growth inhibition assay (Cell Titer Glo), KM12. Type of test: cell-based. The settings on record: Homo sapiens, 72 h; KM12 colon; KRAS/RAF WT; PTEN_K267*; single agent, 3 days, mean ± std.
From the text: as §1, §2, §3
On the technique in general: Cellular ATP, detected with luciferase, serves as a proxy for viable cell number.

For the next test, the system named is MDA-MB-175-VII. Kind of test: Cell growth inhibition assay (Cell Titer Glo), MDA-MB-175-VII. The test is classed as cell-based, Human. The settings on record: for IC50: Homo sapiens, 72 h, MDA-MB-175-VII breast, KRAS/RAF WT, PIK3CA/PTEN WT, single agent, 3 days, mean ± std.
From the text: as §1
(§4) All cells were cultured for a minimum of 72 hours prior to cell plating. Cells were assayed in a 96-well tissue culture plate (NUNC 136102) of RPMI medium containing 10% FBS for all cells at 1,000 cells per well. […] ATP levels were determined by adding Cell Titer Glo® (Promega) according to the manufacturer's protocol. Briefly, Cell Titer Glo® was added each plate, incubated for 30 minutes then luminescent signal was read on the SpectraMax L plate reader with a 0.5 sec integration time.
as §3
(§5) Combination effects on potency were evaluated using Combination Index (CI) which was calculated with the back-interpolated IC50 values and the mutually non-exclusive equation derived by Chou and Talalay (1): […]
(§6) The combination effects on the response scale were quantified by Excess Over Highest Single Agent (EOHSA) based on the concept of nonlinear blending as described in detail by Peterson and Novick (2007) and Peterson (2010) [(2;3) [Peterson and Novick, 2007; Peterson, 2010]. […]

The next test has as its system NCI-H1792. Description: Cell growth inhibition assay (Cell Titer Glo), NCI-H1792. Type of test: cell-based. The settings on record: Homo sapiens, 72 h; NCI-H1792 lung; KRAS_G12C; PIK3CA/PTEN WT; single agent, 3 days, mean ± std.
From the text: as §1, §2, §3

The subject of another test is HCC827. Kind of test: Cell growth inhibition assay (Cell Titer Glo), HCC827. Type of test: cell-based. The following applies: Homo sapiens, 72 h; HCC827 lung; KRAS/RAF WT; PIK3CA/PTEN WT; EGFR E746_A750 deletion mutation; single agent, 3 days, mean ± std.
From the text: as §1, §2, §3

The next test relates to COR-L23. Kind of test: Cell growth inhibition assay (Cell Titer Glo), COR-L23. The test is classed as cell-based. The settings on record: Homo sapiens, 72 h; COR-L23 lung; KRAS_G12V; PIK3CA/PTEN WT; single agent, 3 days, mean ± std.
From the text: as §1, §2, §3

Another test concerns SW900. Kind of test: Cell growth inhibition assay (Cell Titer Glo), SW900. Type of test: cell-based. The following applies: Homo sapiens, 72 h; SW900 lung; KRAS_G12V; PIK3CA/PTEN WT; single agent, 3 days, mean ± std.
From the text: as §1, §2, §3

The test system of the next test is T84. Description: Cell growth inhibition assay (Cell Titer Glo), T84. The settings on record: Homo sapiens, 72 h; T84 colon; KRAS_G13D; PrK3CA_E542K; single agent, 3 days, mean ± std. The test is classed as cell-based.
From the text: as §1, §2, §3

The next test relates to HOP62. Description: Cell growth inhibition assay (Cell Titer Glo), HOP62. The test is classed as cell-based. The following applies: Homo sapiens, HOP-62, 72 h; HOP62 lung; KRAS_G12C; PIK3CA/PTEN WT; single agent, 3 days, mean ± std.
From the text: as §1, §2, §3

The subject of the next test is human colon tumor lines. Description: Cell growth inhibition assay, colon lines. Type of test: cell-based.
From the text: as §1, §4, §3, §5, §6

A further test has as its system CaLu3. Kind of test: Cell growth inhibition assay (Cell Titer Glo), CaLu3. The following applies: Homo sapiens, Calu-3, 72 h; CaLu3 lung; KRAS/RAF WT; PIK3CA/PTEN WT; HER2+; single agent, 3 days, mean ± std. Type of test: cell-based.
From the text: as §1, §2, §3

A further test has as its system RKO. Kind of test: Cell growth inhibition assay (Cell Titer Glo), RKO. Type of test: cell-based. The following applies: Homo sapiens, 72 h; RKO colon; BRAF_V600E; PIK3CA_H1047R; single agent, 3 days, mean ± std.
From the text: as §1, §2, §3

Consider `CC(=O)Nc1cccc(-n2c(=O)n(C3CC3)c(=O)c3c(Nc4ccc(I)cc4F)n(C)c(=O)c(C)c32)c1` [Compound A, N-{3-[3-cyclopropyl-5-(2-fluoro-4-iodo-phenylamino)-6,8-dimethyl-2,4,7-trioxo-3,4,6,7-tetrahydro-2H-pyrido[4,3-d]pyrimidin-1-yl]phenyl}acetamide], for which the IC50 was 2 to 329 nM in the test on human lung tumor lines; 23 ± 21 nM with KM12; 96 ± 33 nM in the test with MDA-MB-175-VII; 53 ± 16 nM in the test on NCI-H1792; over 1000 nM in the test on HCC827; 329 ± 237 nM in the test on COR-L23. The IC50 with SW900 was 127 nM; in the test on T84, 61 ± 31 nM; with HOP62, over 1000 nM; in the test with human colon tumor lines (LS-1034, Colo-205, SW1463, HT29, SW480 and SW1417, read-out: IC50, single agent), at most 37 nM; in the test on human colon tumor lines (colon lines depicted in Table 1, range over the lines, read-out: IC50s, single agent), 1 to 632 nM; in the test on CaLu3, 158 ± 19 nM. In addition, in the test with RKO, the IC50 was determined as 18 ± 1 nM. In addition, the “sensitivity as a single agent (in words)” value in the test on MDA-MB-175-VII (MDA-MB-175-VII cells) is recorded as “sensitive”.
On to `Cn1ncc(Cl)c1-c1cc(C(=O)N[C@H](CN)Cc2cccc(F)c2)sc1Cl` [Compound B, N-{(1S)-2-amino-1-[(3-fluorophenyl)methyl]ethyl}-5-chloro-4-(4-chloro-1-methyl-1H-pyrazol-5-yl)-2-thiophenecarboxamide], for which the IC50 in the test on human lung tumor lines is 2000 to 7000 nM; in the test on KM12, 2250 ± 1180 nM; in the test on MDA-MB-175-VII it was under 1000 nM; in the test with NCI-H1792, 7310 ± 2870 nM; with HCC827, over 8000 nM; with COR-L23, 5370 ± 3520 nM. The IC50 in the test on SW900 is over 10000 nM; in the test on T84, over 10000 nM; with HOP62 it was over 10000 nM; in the test on human colon tumor lines (a subset of these colon cell lines (modest sensitivity), range over the lines, read-out: IC50 values, single agent) it was 500 to 5000 nM; with CaLu3, over 8000 nM; in the test with RKO, 1810 ± 674 nM.
